Results from publication PMC5814837 (Pest Management Science, 2017).
In brackets after ≈: the same amount, converted by molar mass. Several values for one entry are separate records, joined by “and”; a condition that tells them apart may be missing. Equal values may be shown once. Read-outs that look alike come from different tables or passages of the source.

How the values were obtained:
[1] = system: Zymoseptoria tritici; conditions: in vivo
[2] = target: mitochondrial succinate dehydrogenase (SDH); experiment: biochemical; parameters: species or system Zymoseptoria tritici
[3] = target: mitochondrial succinate dehydrogenase (SDH) (Zymoseptoria tritici, UniProt F9X9V6+F9XH52+O42772); experiment: biochemical; conditions: IC50
mitochondrial succinate dehydrogenase (SDH) (Zymoseptoria tritici, UniProt F9X9V6+F9XH52+O42772), sequence (O42772 19-297): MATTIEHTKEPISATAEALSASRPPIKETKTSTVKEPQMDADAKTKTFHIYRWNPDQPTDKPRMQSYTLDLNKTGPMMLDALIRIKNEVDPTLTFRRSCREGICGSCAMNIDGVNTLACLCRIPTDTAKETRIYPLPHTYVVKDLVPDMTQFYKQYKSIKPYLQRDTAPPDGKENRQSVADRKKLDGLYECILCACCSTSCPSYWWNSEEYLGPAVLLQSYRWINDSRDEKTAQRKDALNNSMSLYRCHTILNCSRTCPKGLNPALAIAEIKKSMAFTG
mitochondrial succinate dehydrogenase (SDH) (Zymoseptoria tritici, UniProt F9X9V6+F9XH52+O42772), sequence (F9XH52 44-187): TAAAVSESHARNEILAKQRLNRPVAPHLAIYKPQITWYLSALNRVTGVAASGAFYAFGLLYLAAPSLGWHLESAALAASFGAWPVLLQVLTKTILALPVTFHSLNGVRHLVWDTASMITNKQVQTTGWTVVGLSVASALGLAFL
mitochondrial succinate dehydrogenase (SDH) (Zymoseptoria tritici, UniProt F9X9V6+F9XH52+O42772), sequence (F9X9V6 1-193): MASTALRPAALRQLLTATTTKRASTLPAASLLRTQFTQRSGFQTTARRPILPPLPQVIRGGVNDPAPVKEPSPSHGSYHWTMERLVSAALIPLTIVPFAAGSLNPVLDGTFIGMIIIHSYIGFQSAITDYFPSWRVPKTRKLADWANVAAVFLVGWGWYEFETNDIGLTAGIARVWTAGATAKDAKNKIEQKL
mitochondrial succinate dehydrogenase (SDH) (Zymoseptoria tritici, UniProt F9X9V6+F9XH52+O42772), sequence (F9WWR1 29-643 partner): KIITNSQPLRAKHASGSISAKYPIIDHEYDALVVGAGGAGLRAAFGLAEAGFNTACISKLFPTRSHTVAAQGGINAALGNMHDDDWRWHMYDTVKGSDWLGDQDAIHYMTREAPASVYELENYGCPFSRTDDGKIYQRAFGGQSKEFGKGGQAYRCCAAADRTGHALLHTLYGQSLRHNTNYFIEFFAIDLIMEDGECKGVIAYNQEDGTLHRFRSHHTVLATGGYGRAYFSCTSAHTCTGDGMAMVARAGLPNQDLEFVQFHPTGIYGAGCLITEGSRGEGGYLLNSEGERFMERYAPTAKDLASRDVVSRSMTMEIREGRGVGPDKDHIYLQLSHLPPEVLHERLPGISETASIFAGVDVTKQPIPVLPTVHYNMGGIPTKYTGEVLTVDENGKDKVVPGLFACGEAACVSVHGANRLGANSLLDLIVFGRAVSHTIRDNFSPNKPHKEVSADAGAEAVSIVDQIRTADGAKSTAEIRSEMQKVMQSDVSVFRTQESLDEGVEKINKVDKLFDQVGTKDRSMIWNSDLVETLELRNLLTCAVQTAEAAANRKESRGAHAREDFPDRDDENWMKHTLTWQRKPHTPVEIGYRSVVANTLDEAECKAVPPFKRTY

[4] = system: Zymoseptoria tritici; experiment: microbe, parasite or virus in culture; type: cell-based
[5] = Zymoseptoria tritici, read-out: EC50 Median
[6] = Zymoseptoria tritici, read-out: EC50 Range

Question: Which Control efficacy [1] does the source give for `Cn1cc(C(=O)Nc2ccc(F)cc2-c2ccc(Cl)c(Cl)c2)c(C(F)F)n1` [Bixafen, bixafen] here?
Answer: 0%

Question: What about the “application rate at which strain was well controlled” value [1] of the same molecule?
Answer: 3 mg/L

Question: What about the “application rate at which strains were well controlled” value [1] of the same molecule?
Answer: 10 mg/L

Question: And the IC50 [2]?
Answer: 31 nM and 49 nM

Question: And the IC50 [3]?
Answer: 33 nM and 38 nM

Question: What about the EC50 [4] of the same molecule?
Answer: 0.03 µg/mL (≈ 0.0724 µM)

Question: And the “EC50 Median” value [4]?
Answer: 0.096 µg/mL (≈ 0.232 µM)

Question: And the EC50 ([4]; Zymoseptoria tritici)?
Answer: 0.03 µg/mL (≈ 0.0724 µM)

Question: What about the EC50 [4, 5] of the same molecule?
Answer: 0.063 µg/mL (≈ 0.152 µM)

Question: What about the EC50 [4, 6] of the same molecule?
Answer: 0.017 to 0.406 µg/mL (≈ 0.041 to 0.98 µM)

Question: Which EC50 ([4]; Zymoseptoria tritici) does the source give for `O=C(Nc1ccccc1-c1ccc(Cl)cc1)c1cccnc1Cl` [Boscalid, boscalid] here?
Answer: 0.16 µg/mL (≈ 0.466 µM)

Question: Which “Resistance factor (RF)” value [4] does the source give for `N#Cc1c(Cl)c(Cl)c(Cl)c(C#N)c1Cl` [Chlorothalonil, chlorothalonil] here?
Answer: 0.8 and 1.2 and 1.3 and 1.4 and 0.7

Question: And the “sensitivity of strains (in words)” value [4]?
Answer: sensitive

Question: What about the EC50 ([4]; Zymoseptoria tritici) of the same molecule?
Answer: 0.13 µg/mL (≈ 0.489 µM)

Question: With `[Cl][Sn]([c]1ccccc1)([c]1ccccc1)[c]1ccccc1` [Fentin Cl, fentin chloride] as the molecule, how does the EC50 [4] read?
Answer: 0.07 µg/mL

Question: What does the source list for `O=C(NCCc1ncc(C(F)(F)F)cc1Cl)c1ccccc1C(F)(F)F` [Fluopyram, fluopyram]?
Answer: application rate providing control [1]: ≥ 30 mg/L; in planta control (in words) [1]: not controlled; EC50 [4]: 0.20 µg/mL (≈ 0.504 µM); EC50 Median [4]: 0.215 µg/mL (≈ 0.542 µM); EC50 ([4]; Zymoseptoria tritici): 0.2 µg/mL (≈ 0.504 µM); EC50 [4, 5]: 0.19 µg/mL (≈ 0.479 µM); EC50 [4, 6]: 0.08 to 7.78 µg/mL (≈ 0.202 to 19.6 µM)

Question: Which results are given for `Cn1cc(C(=O)Nc2ccccc2-c2cc(F)c(F)c(F)c2)c(C(F)F)n1` [Fluxapyroxad]?
Answer: EC50 [4]: 0.04 µg/mL (≈ 0.105 µM); RF in comparison with reference strain IPO323 [4]: < 10; EC50 ([4]; Zymoseptoria tritici): 0.04 µg/mL (≈ 0.105 µM)

Question: With `Cc1cc(OC(C)C)ccc1C(=O)C(C)(C)NC(=O)c1sccc1C` [Isofetamid, N‐[1,1‐dimethyl‐2‐(4‐isopropoxy‐o‐tolyl)‐2‐oxoethyl]‐3‐methylthiophene‐2‐carboxamide] as the molecule, how does the “in planta control (in words)” value [1] read?
Answer: not controlled

Question: What about the EC50 [4] of the same molecule?
Answer: 0.06 µg/mL (≈ 0.167 µM)

Question: And the “EC50 Median” value [4]?
Answer: 0.096 µg/mL (≈ 0.267 µM)

Question: What about the EC50 [4, 5] of the same molecule?
Answer: 0.09 µg/mL (≈ 0.25 µM)

Question: What about the EC50 ([4]; Zymoseptoria tritici, read-out: high EC50 values (upper end of the sensitivity range)) of the same molecule?
Answer: > 50 µg/mL

Question: How did the EC50 ([4]; Zymoseptoria tritici) turn out when `CC(C)CC(C)c1sccc1NC(=O)c1cn(C)nc1C(F)(F)F` (stereo not drawn) [Penthiopyrad, penthiopyrad] was run?
Answer: 0.05 µg/mL (≈ 0.139 µM)

Question: What does the source list for `Cc1cccc(N(C)C(=S)Oc2ccc3ccccc3c2)c1` [Tolnaftate, tolnaftate]?
Answer: growth in the presence of tolnaftate [4]: none of these strains was able to grow; EC50 ([4]; Zymoseptoria tritici): 0.17 µg/mL (≈ 0.553 µM)
